# Where a name gives a salt, the structure may show the parent alone. Read-outs that look alike come from different tables or passages of the source.
# Key:
# [1] = tested on: Rhizoctonia solani; experiment: Fungicidal (bactericidal) activity in vitro, PDA colony diameter; assay type: cell-based; conditions: 50 mg/kg
# [2] = tested on: armyworms; assay type: in vivo; conditions: concentration 600 mg/kg
# [3] = tested on: Fusarium graminearumt; experiment: microbe, parasite or virus in culture; assay type: cell-based; conditions: 50 mg/kg
# [4] = tested on: Fusarium fujikuroi; experiment: Fungicidal (bactericidal) activity in vitro, PDA colony diameter; assay type: cell-based; conditions: 50 mg/kg
# [5] = tested on: Cercospora arachidicola; experiment: as above; assay type: cell-based; conditions: 50 mg/kg
# [6] = tested on: tobacco mosaic virus (TMV); experiment: Anti-TMV in vivo therapeutic effect; set-up: species or system tobacco mosaic virus (host Nicotiana tabacum L.cv.Xanthi NN)
# [7] = tested on: Phytophthora capsici; experiment: Fungicidal (bactericidal) activity in vitro, PDA colony diameter; assay type: cell-based; conditions: 50 mg/kg
# [8] = tested on: corn borers; conditions: concentration 600 mg/kg
# [9] = tested on: Sclerotinia scleotiorum; experiment: Fungicidal (bactericidal) activity in vitro, PDA colony diameter; assay type: cell-based; conditions: 50 mg/kg
# [10] = tested on: Rhizoctonia cereali; experiment: as above; assay type: cell-based; conditions: 50 mg/kg
# [11] = tested on: tobacco mosaic virus (TMV); experiment: Anti-TMV in vivo inactivation; set-up: species or system tobacco mosaic virus (host Nicotiana tabacum L.cv.Xanthi NN)
# [12] = tested on: Macrophoma kawatsukai; experiment: Fungicidal (bactericidal) activity in vitro, PDA colony diameter; assay type: cell-based; conditions: 50 mg/kg
# [13] = tested on: Colletotrichum orbiculare; experiment: as above; assay type: cell-based; conditions: 50 mg/kg
# [14] = tested on: mosquito larvae; experiment: whole plant or invertebrate; conditions: 24 h
# Method: Experimental method of mosquito larvae: culex pipiens pallens, a normal colony raised indoors. Weigh about 5 mg of the compound for test, put it in a penicillin vial, add 5 mL of acetone (or an appropriate solvent), and shake and dissolve it to obtain a 1000 ppm mother solution. Pipette 0.5 mL of the mother solution, add it to a 100 mL beaker filled with 89.9 mL of water, select 10 mosquito larvae at the beginning of the fourth instar, and pour them to a beaker together with 10 mL of feeding solution. The concentration of the drug solution is 5 ppm. […] Use an aqueous solution containing 0.5 mL of test solvent as a blank.
# [15] = tested on: cotton bollworms; experiment: whole plant or invertebrate; conditions: concentration 600 mg/kg
# Method: Experimental method of cotton bollworms: feed and drug mixing method: measure 3 mL of prepared solution and add it to about 27 g of newly prepared feed, thereby obtaining needed concentration through dilution by 10 times.
# [16] = tested on: Bipolaria maydis; experiment: organism not typed; assay type: cell-based; conditions: 50 mg/kg
# [17] = tested on: Alternaria solani; experiment: Fungicidal (bactericidal) activity in vitro, PDA colony diameter; assay type: cell-based; conditions: 50 mg/kg
# [18] = tested on: tobacco mosaic virus (TMV); experiment: Anti-TMV in vivo protective effect; set-up: species or system tobacco mosaic virus (host Nicotiana tabacum L.cv.Xanthi NN)
# [19] = tested on: potato late blight; experiment: microbe, parasite or virus in culture; assay type: cell-based
# [20] = tested on: cucumber fusarium wilt; experiment: Fungicidal (bactericidal) activity in vitro, PDA colony diameter; assay type: cell-based; conditions: 50 mg/kg
# [21] = tested on: Botrytis cinerea; experiment: as above; assay type: cell-based; conditions: 50 mg/kg
# [22] = tested on: tobacco mosaic virus (TMV); experiment: Anti-TMV in vitro effect (half-leaf soaking); assay type: cell-based, tobacco mosaic virus (host Nicotiana tabacum L.cv.Xanthi NN)
SMILES,Bactericidal activity (%) Rhizoctonia solani [1] [%],Armyworm Mortality (%) [2] [%],Bactericidal activity (%) Fusarium graminearumt [3] [%],Bactericidal activity (%) Fusarium fujikuroi [4] [%],Bactericidal activity (%) Cercospora arachidicola [5] [%],Relative inhibition rate (%) In vivo therapy ([6]; treatment dose 100 μg/mL) [%],Relative inhibition rate (%) In vivo therapy ([6]; treatment dose 500 μg/mL) [%],Bactericidal activity (%) Phytophthora capsici [7] [%],Corn borer Mortality (%) [8] [%],Bactericidal activity (%) Sclerotinia scleotiorum [9] [%],Bactericidal activity (%) Rhizoctonia cereali [10] [%],Relative inhibition rate (%) In vivo inactivation ([11]; treatment dose 100 μg/mL) [%],Relative inhibition rate (%) In vivo inactivation ([11]; treatment dose 500 μg/mL) [%],Bactericidal activity (%) Macrophoma kawatsukai [12] [%],Bactericidal activity (%) Colletotrichum orbiculare [13] [%],Mosquito larvae Mortality (%) ([14]; concentration 10 mg/kg),Cotton bollworm Mortality (%) [15] [%],Bactericidal activity (%) Bipolaria maydis [16] [%],Bactericidal activity (%) Alternaria solani [17] [%],Relative inhibition rate (%) In vivo protection ([18]; treatment dose 100 μg/mL) [%],further results
"CCCCOC(=O)[C@@H]1Cc2c([nH]c3ccccc23)[C@H](C)N1 [Ib-8, (1S, 3S)-1-methyl-2,3,4,9-tetrahydropyridino [3,4-b] indol-3-butyl formate]",55.4,5,50.0,50.0,71.4,17.1,42.2,51.5,0,72.0,84.4,20.3,51.3,64.7,38.1,10,20,89.5,83.3,17.6,Relative inhibition rate (%) In vivo protection ([18]; treatment dose 500 μg/mL): 43.2%; Bactericidal activity (%) potato late blight [19]: 35.0%; Bactericidal activity (%) Cucumber fusarium wilt [20]: 33.3%; Bactericidal activity (%) Botrytis cinerea [21]: 50.0%; Relative inhibition rate (%) In vitro activity ([22]; treatment dose 100 μg/mL): 13.4%; Relative inhibition rate (%) In vitro activity ([22]; treatment dose 500 μg/mL): 48.2%
"CCOC(=O)C1Cc2c([nH]c3ccccc23)CN1 (stereo not shown) [Ib-9, 2,3,4,9-tetrahydropyridino [3,4-b] indol-3-ethyl formate]",35.5,15,35.7,14.3,84.6,14.3,42.7,15.6,10,19.6,44.7,16.9,41,21.4,42.9,35,10,22.7,26.3,17.2,Relative inhibition rate (%) In vivo protection ([18]; treatment dose 500 μg/mL): 40.4%; Bactericidal activity (%) potato late blight [19]: 22.7%; Bactericidal activity (%) Cucumber fusarium wilt [20]: 19.2%; Bactericidal activity (%) Botrytis cinerea [21]: 12.1%; Relative inhibition rate (%) In vitro activity ([22]; treatment dose 100 μg/mL): 12.8%; Relative inhibition rate (%) In vitro activity ([22]; treatment dose 500 μg/mL): 44.5%
"CCOC(=O)[C@@H]1Cc2c([nH]c3ccccc23)[C@H](CC)N1 [Ib-10, (1S, 3S)-1-ethyl-2,3,4,9-tetrahydropyridino [3,4-b] indol-3-ethyl formate]",21.4,30,35.7,35.7,21.4,11.4,38.1,45.5,25,56.0,65.6,12.6,46.4,64.7,42.9,60,15,31.6,55.6,10.7,Relative inhibition rate (%) In vivo protection ([18]; treatment dose 500 μg/mL): 36.6%; Bactericidal activity (%) potato late blight [19]: 30.0%; Bactericidal activity (%) Cucumber fusarium wilt [20]: 23.8%; Bactericidal activity (%) Botrytis cinerea [21]: 40.9%; Relative inhibition rate (%) In vitro activity ([22]; treatment dose 100 μg/mL): 0%; Relative inhibition rate (%) In vitro activity ([22]; treatment dose 500 μg/mL): 34.1%
"CCOC(=O)[C@H]1Cc2c([nH]c3ccccc23)[C@@H](C)N1 [Ib-12, (1R,3R)-1-methyl-2,3,4,9-tetrahydropyridino [3,4-b] indol-3-ethyl formate]",42.1,50,26.2,28.6,92.3,12.9,38.6,9.4,50,17.7,39.5,16.7,35.8,54.8,25.0,100,30,18.2,26.3,17,Mosquito larvae Mortality (%) ([14]; concentration 5 mg/kg): 40%; Relative inhibition rate (%) In vivo protection ([18]; treatment dose 500 μg/mL): 41.9%; Bactericidal activity (%) potato late blight [19]: 18.2%; Bactericidal activity (%) Cucumber fusarium wilt [20]: 19.2%; Bactericidal activity (%) Botrytis cinerea [21]: 24.2%; Relative inhibition rate (%) In vitro activity ([22]; treatment dose 100 μg/mL): 12.6%; Relative inhibition rate (%) In vitro activity ([22]; treatment dose 500 μg/mL): 40%
"CCOC(=O)C1Cc2c([nH]c3ccccc23)C(C)=N1 (stereo not shown) [Ib-14, 1-methyl-4,9-dihydro-pyridino [3,4-b] indol-3-ethyl formate]",59.2,10,42.9,28.6,69.2,15.9,45.8,15.6,10,29.4,65.8,0,35.7,33.3,42.9,30,30,36.4,42.1,21.4,Relative inhibition rate (%) In vivo protection ([18]; treatment dose 500 μg/mL): 47%; Bactericidal activity (%) potato late blight ([19]; 50 mg/kg): 36.4%; Bactericidal activity (%) Cucumber fusarium wilt [20]: 23.1%; Bactericidal activity (%) Botrytis cinerea [21]: 36.4%; Relative inhibition rate (%) In vitro activity ([22]; treatment dose 100 μg/mL): 11.1%; Relative inhibition rate (%) In vitro activity ([22]; treatment dose 500 μg/mL): 42.6%
"C[C@@H]1N[C@H](C(=O)NCCO)Cc2c1[nH]c1ccccc21 [Ib-18, (1S, 3S)—N-(2-ethoxyl)-1-methyl-2,3,4,9-tetrahydro-pyridino [3,4-b] indol-3-formamide]",35.7,5,28.6,35.7,21.4,18.6,40,36.4,5,68.0,53.1,10,41.5,70.6,23.8,10,5,26.3,27.8,12.1,Relative inhibition rate (%) In vivo protection ([18]; treatment dose 500 μg/mL): 41%; Bactericidal activity (%) potato late blight [19]: 5.0%; Bactericidal activity (%) Cucumber fusarium wilt [20]: 23.8%; Bactericidal activity (%) Botrytis cinerea [21]: 27.3%; Relative inhibition rate (%) In vitro activity ([22]; treatment dose 100 μg/mL): 5.4%; Relative inhibition rate (%) In vitro activity ([22]; treatment dose 500 μg/mL): 37.6%

# Reference: patent US10208033B2, “β-carboline, dihydro-β-carboline and tetrahydro-β-carboline alkaloid derivatives and preparation methods same and use in aspects of preventing and treating plant viruses, fungicides and insecticides” (NANKAI UNIVERSITY, priority 2013, dated 2019)
